# Measured values from US6964760B2, “Antimicrobial polypeptide, nucleic acid, and methods of use” (University of Florida Research Foundation, priority 1997, dated 2005).
# Assays:
# Assay type in all cases: cell-based
# S. mutans strains = assay: Overlay technique, panel of S. mutans strains; details: mutacin 1140 produced by a JH1140 strain
# Experimental: (§1) Three drops of an overnight THB culture of the indicator strain were mixed with 3 ml of molten top agar and poured evenly over the surface of the plate. After an additional 24 hours of incubation, clear zones surrounding the test strain were measured.
# (§2) The inhibitory factor inhibited 124 of 125 S. mutans strains tested. […] The following table summarizes the spectrum of activity found for the lantibiotic.
# [1] = system: other strains of S. mutans; assay: Sterility of agar taken from clear zones; details: loopfuls of agar taken from clear zones were sterile
# Gram positive organisms = assay: Overlay technique, Gram positive organisms; details: including Streptococcus mitts, Streptococcus pyogenes, Staphylococcus aureus, Actinomyces species
# Experimental: as §1, §2
# Gram-negative bacteria = assay: Overlay technique, Gram-negative bacteria
# Experimental: as §1, §2
substance,measurement,setting,value
mutacin 1140,S. mutans strains inhibited of strains tested,S. mutans strains,124 of 125
same,Kind of effect on other strains of S. mutans,[1],bacteriocidal
same,Sensitivity of most Gram positive organisms to inhibitory activity,Gram positive organisms,sensitive
same,Inhibition of Gram-negative bacteria,Gram-negative bacteria,mostly resistant
